23 compounds from ChEMBL document CHEMBL1914442, “Metabolism-directed design of oxetane-containing arylsulfonamide derivatives as γ-secretase inhibitors” (J Med Chem, 2011) can be followed below.

In general, Papp A→B refers to the apparent permeability from the apical to the basolateral side of a cell layer. The term logD denotes lipophilicity at a set pH, counting ionised and neutral species. High values mean higher lipophilicity, low ones lower lipophilicity. By bioavailability is commonly meant dose-corrected exposure relative to a reference, in per cent. The low end stands for little systemic uptake, the high end for much systemic uptake.

Series [1] in a line: Apparent permeability from apical to basolateral side of dog RRCK cells by transwell assay. The class given is ADME, cell-based, Canis lupus familiaris, MDCKII-LE. The note with it: MDCK.
Another series can be described thus: physchem. The note with it: octanol/water, pH 7.4.
Series [2] can be described thus: Oral bioavailability in rat. The series is classed as ADME, organism-based. The conditions noted are these: in vivo.
Series [3] can be described thus: Drug uptake in wild-type mouse 129/sve cerebrospinal fluid at 100 mg/kg, sc administered as a single dose measured 4 hr post-dose by LC-MS analysis. The class given is ADME, organism-based. Details: dose 100 mg/kg, route subcutaneous. The conditions noted are these: read-out: Drug uptake.
Series [4] is described as follows: Drug uptake in wild-type mouse 129/sve cerebrospinal fluid at 100 mg/kg, sc administered as a single dose measured 1 hr post-dose by LC-MS analysis. The series is classed as ADME, organism-based. On the set-up: dose 100 mg/kg, route subcutaneous. The conditions noted are these: read-out: Drug uptake.
The nature of series [5]: Oral bioavailability in mouse. The class given is ADME, organism-based. The conditions noted are these: in vivo.

Consider `NC(=O)[C@@H](CCC(F)(F)F)N(CC1CCCCC1)S(=O)(=O)c1ccc(Cl)cc1`, for which the Papp A→B in series [1] worked out at 4.42 ×10⁻⁶ cm/s.
In turn, `NC(=O)[C@@H](CCC(F)(F)F)N(CC1CCCC1)S(=O)(=O)c1ccc(Cl)cc1` returned a logD in the series “physchem” of 5.15. In series [1], the Papp A→B came out at 6.01 ×10⁻⁶ cm/s.
As for `NC(=O)[C@@H](CCC(F)(F)F)N(CC1CCC1)S(=O)(=O)c1ccc(Cl)cc1`, the Papp A→B in series [1] came to 11.1 ×10⁻⁶ cm/s.
Take `NC(=O)[C@@H](CCC(F)(F)F)N(C[C@H]1CCCCO1)S(=O)(=O)c1ccc(Cl)cc1`: the logD in “physchem” is 4.3. Besides, the Papp A→B in series [1] was 13.4 ×10⁻⁶ cm/s.
Taken in the same sequence, the figures for `NC(=O)[C@@H](CCC(F)(F)F)N(C[C@@H]1CCCCO1)S(=O)(=O)c1ccc(Cl)cc1` were 4.3 and 15.4 ×10⁻⁶ cm/s.
For `NC(=O)[C@@H](CCC(F)(F)F)N(C[C@H]1CCCOC1)S(=O)(=O)c1ccc(Cl)cc1` the same measures were 3.6 and 18.2 ×10⁻⁶ cm/s.
In the case of `NC(=O)[C@@H](CCC(F)(F)F)N(C[C@@H]1CCCOC1)S(=O)(=O)c1ccc(Cl)cc1`, in the series “physchem”, the logD came out at 3.7. Moreover, the apical-to-basolateral permeability (Papp A→B) in series [1] was 18.4 ×10⁻⁶ cm/s.
For `NC(=O)[C@@H](CCC(F)(F)F)N(CC1CCOCC1)S(=O)(=O)c1ccc(Cl)cc1` the same measures were 3.5 and 26.3 ×10⁻⁶ cm/s.
Taken in the same sequence, the figures for `NC(=O)[C@@H](CCC(F)(F)F)N(C[C@@H]1COCCO1)S(=O)(=O)c1ccc(Cl)cc1` were 2.75 and 27.3 ×10⁻⁶ cm/s.
Consider `NC(=O)[C@@H](CCC(F)(F)F)N(C[C@H]1COCCO1)S(=O)(=O)c1ccc(Cl)cc1`, for which the pH-dependent lipophilicity (logD) in the series “physchem” is 2.75. Also, the Papp A→B in series [1] turned out to be 20.6 ×10⁻⁶ cm/s.
For `NC(=O)[C@@H](CCC(F)(F)F)N(C[C@H]1CCCO1)S(=O)(=O)c1ccc(Cl)cc1` the same measures were 3.6 and 19.1 ×10⁻⁶ cm/s.
Taken in the same sequence, the figures for `NC(=O)[C@@H](CCC(F)(F)F)N(C[C@@H]1CCCO1)S(=O)(=O)c1ccc(Cl)cc1` were 3.5 and 22.4 ×10⁻⁶ cm/s.
With `NC(=O)[C@@H](CCC(F)(F)F)N(C[C@H]1CCOC1)S(=O)(=O)c1ccc(Cl)cc1`, the logD in the series “physchem” was 2.8. Also, the Papp A→B in series [1] was found to be 21.7 ×10⁻⁶ cm/s.
For `NC(=O)[C@@H](CCC(F)(F)F)N(C[C@@H]1CCOC1)S(=O)(=O)c1ccc(Cl)cc1` the same measures were 2.8 and 20.5 ×10⁻⁶ cm/s.
Turning to `NC(=O)[C@@H](CCC(F)(F)F)N(C[C@@H]1CCO1)S(=O)(=O)c1ccc(Cl)cc1`, the logD in “physchem” came out at 2.6. Moreover, the bioavailability in series [2] and in series [5] was less than 5% throughout. The concentration at 4 h in series [3] came out at 59.6 nM. Moreover, in series [4], the concentration at 1 h came to 447 nM. Moreover, the Papp A→B in series [1] amounted to 34.9 ×10⁻⁶ cm/s.
The compound `NC(=O)[C@@H](CCC(F)(F)F)N(C[C@H]1CCO1)S(=O)(=O)c1ccc(Cl)cc1` had a logD in “physchem” of 2.6. The Papp A→B in series [1] turned out to be 28.7 ×10⁻⁶ cm/s.
For the compound `NC(=O)[C@@H](CCC(F)(F)F)N(CC1COC1)S(=O)(=O)c1ccc(Cl)cc1`, in the series “physchem”, the logD amounted to 2.5. Besides, the bioavailability in series [2] and in series [5] was less than 5% throughout. Further, in series [1], the Papp A→B turned out to be 25.4 ×10⁻⁶ cm/s.
For the compound `C[C@H]1C[C@@H](CN([C@H](CCC(F)(F)F)C(N)=O)S(=O)(=O)c2ccc(Cl)cc2)O1`, the Papp A→B in series [1] came out at 21.8 ×10⁻⁶ cm/s.
The same measure, in the same setting: then `C[C@@H]1C[C@@H](CN([C@H](CCC(F)(F)F)C(N)=O)S(=O)(=O)c2ccc(Cl)cc2)O1`, with 21.2 ×10⁻⁶ cm/s.
On to `CC1(C)C[C@H](CN([C@H](CCC(F)(F)F)C(N)=O)S(=O)(=O)c2ccc(Cl)cc2)O1`, for which the logD in “physchem” turned out to be 3.8. In series [1], the Papp A→B came out at 18.1 ×10⁻⁶ cm/s.
For `CC1(C)C[C@@H](CN([C@H](CCC(F)(F)F)C(N)=O)S(=O)(=O)c2ccc(Cl)cc2)O1`, the log distribution coefficient (logD) in the series “physchem” was found to be 3.8. Moreover, the bioavailability in series [2] and in series [5] was less than 5% throughout. For the same compound, the Papp A→B in series [1] is 14.9 ×10⁻⁶ cm/s.
Take `CC1(C)CO[C@@H]1CN([C@H](CCC(F)(F)F)C(N)=O)S(=O)(=O)c1ccc(Cl)cc1`: the logD in “physchem” was determined as 3.9. Further, the Papp A→B in series [1] was found to be 22.3 ×10⁻⁶ cm/s.
For `CC1(C)CO[C@H]1CN([C@H](CCC(F)(F)F)C(N)=O)S(=O)(=O)c1ccc(Cl)cc1` the same measures were 3.8 and 26.4 ×10⁻⁶ cm/s.
